The test has as its system HIV-1 strain LAI. Description: Cellular anti-HIV assay (MTT), wild type strain. The format is cell-based. Conditions: MT4 cells, five days, MTT; HIV-1 strain LAI; Tables 1-6. As for the experimental part:
The compounds of the present invention were examined for anti-viral activity in a cellular assay. […] The cellular assay was performed according to the following procedure.

Here are results for 20 compounds from patent publication US7763641B2, “Broadspectrum heterocyclic substituted phenyl containing sulfonamide HIV protease inhibitors” (Tibotec Pharmaceuticals Ltd., priority 2001, dated 2010).

As a reminder, the pEC50 is the negative decadic logarithm of the EC50, by convention in mol/L. On to `Cc1sc(N)nc1-c1ccc(S(=O)(=O)N(CC(C)C)CC(O)C(Cc2ccccc2)NC(=O)OC2COC3OCCC23)cc1` (centres unmarked) [Compound 7], for which the pEC50 was 7.3.

As for `Cc1cccc(C)c1OCC(=O)N[C@@H](Cc1ccccc1)[C@H](O)CN(CC(C)C)S(=O)(=O)c1ccc(-c2csc(N)n2)cc1` [Compound 8], the pEC50 is reported as 5.9. The compound `CNc1nc(-c2ccc(S(=O)(=O)N(CC(C)C)C[C@@H](O)[C@H](Cc3ccccc3)NC(=O)COc3c(C)cccc3C)cc2)cs1` [Compound 9] showed a pEC50 of 5.9.

On to `CC(C)CN(C[C@@H](O)[C@H](Cc1ccccc1)NC(=O)OCc1cncs1)S(=O)(=O)c1ccc(-c2csc(Nc3ccncc3)n2)cc1` [Compound 10], for which the pEC50 was determined as 5.5. As to `Cc1cccc(C)c1OCC(=O)N[C@@H](Cc1ccccc1)[C@H](O)CN(CC(C)C)S(=O)(=O)c1ccc(-c2csc(Nc3ccncc3)n2)cc1` [Compound 11], the pEC50 is recorded as 5.4. The pEC50 values of the last two compounds are within 0.2 log units of each other. Consider `CC(=O)Nc1nc(-c2ccc(S(=O)(=O)N(CC(C)C)C[C@@H](O)[C@H](Cc3ccccc3)NC(=O)COc3c(C)cccc3C)cc2)cs1` [Compound 12], for which the negative-log EC50 (pEC50) amounted to 5.3. The compound `Cc1cc(Br)cc(C)c1OCC(=O)N[C@@H](Cc1ccccc1)[C@H](O)CN(CC(C)C)S(=O)(=O)c1ccc(-c2csc(N)n2)cc1` [Compound 13] gave a pEC50 of 5.3. On to `CCNc1nc(-c2ccc(S(=O)(=O)N(CC(C)C)C[C@@H](O)[C@H](Cc3ccccc3)NC(=O)COc3c(C)cccc3C)cc2)cs1` [Compound 15], for which the pEC50 was determined as 5.3. The value for `C=CCNc1nc(-c2ccc(S(=O)(=O)N(CC(C)C)C[C@@H](O)[C@H](Cc3ccccc3)NC(=O)COc3c(C)cccc3C)cc2)cs1` [Compound 16] was 5.1; that for `CC(=O)Nc1nc(-c2ccc(S(=O)(=O)N(CC(C)C)C[C@@H](O)[C@H](Cc3ccccc3)NC(=O)COc3c(C)cc(Br)cc3C)cc2)cs1` [Compound 17] was 4.2; that for `C=CCNc1nc(-c2ccc(S(=O)(=O)N(CC(C)C)C[C@@H](O)[C@H](Cc3ccccc3)NC(=O)COc3c(C)cc(Br)cc3C)cc2)cs1` [Compound 18] was 4.4. Consider `CCNc1nc(-c2ccc(S(=O)(=O)N(CC(C)C)C[C@@H](O)[C@H](Cc3ccccc3)NC(=O)COc3c(C)cc(Br)cc3C)cc2)cs1` [Compound 19], for which the pEC50 came to 4.6.

`Cc1cc(Br)cc(C)c1OCC(=O)N[C@@H](Cc1ccccc1)[C@H](O)CN(CC(C)C)S(=O)(=O)c1ccc(-c2csc(Nc3ccncc3)n2)cc1` [Compound 21] came in with a pEC50 of 4.7. As for `Cc1cccc(C)c1OCC(=O)N[C@@H](Cc1ccccc1)[C@H](O)CN(CC(C)C)S(=O)(=O)c1ccc(-c2ccnn2C)cc1` [Compound 25], the negative logarithm of the EC50 (pEC50) is 5.9. `Cc1cccc(C)c1OCC(=O)N[C@@H](Cc1ccccc1)[C@H](O)CN(CC(C)C)S(=O)(=O)c1ccc(-c2ccnn2C(C)(C)C)cc1` [Compound 27] gave a pEC50 of 5.2. `Cc1cccc(C)c1OCC(=O)N[C@@H](Cc1ccccc1)[C@H](O)CN(CC(C)C)S(=O)(=O)c1ccc(-c2ccnn2Cc2ccccc2)cc1` [Compound 28] displayed a pEC50 of 5.2. With `CCn1nccc1-c1ccc(S(=O)(=O)N(CC(C)C)C[C@@H](O)[C@H](Cc2ccccc2)NC(=O)COc2c(C)cccc2C)cc1` [Compound 29] the figure was 5.2; with `CCCn1nccc1-c1ccc(S(=O)(=O)N(CC(C)C)C[C@@H](O)[C@H](Cc2ccccc2)NC(=O)COc2c(C)cccc2C)cc1` [Compound 30], 5.0; with `Cc1nc(-c2ccc(S(=O)(=O)N(CC(C)C)CC(O)C(Cc3ccccc3)NC(=O)OC3COC4OCCC34)cc2)c[nH]1` (centres unmarked) [Compound 31], 7.6.

With `CC(C)CN(CC(O)C(Cc1ccccc1)NC(=O)OC1COC2OCCC12)S(=O)(=O)c1ccc(-c2c[nH]c(N)n2)cc1` (centres unmarked) [Compound 34], the pEC50 is on record as 6.2.
